Experimental data published in ChEMBL document CHEMBL3797190, “Development of 3,5-Dinitrobenzylsulfanyl-1,3,4-oxadiazoles and Thiadiazoles as Selective Antitubercular Agents Active Against Replicating and Nonreplicating Mycobacterium tuberculosis” (J Med Chem, 2016).
Converted amounts (≈) assume the structure as drawn. The source made the active and inactive calls. The calls are words filed in the database; no cut-off is given here.

Legend:
Hepatocyte = assay: Cytotoxicity against primary human hepatocytes assessed as cell viability after 48 hrs by MTS assay; format: cell-based
Mycobacterium kansasii [1] = assay: Antimycobacterial activity against Mycobacterium kansasii CNCTC My 6509/96 after 7 days by microdilution method; format: functional; settings: CNCTC My 6509/96, 168 h
[2] = Cytotoxicity against human HuH7 cells assessed as cell viability after 24 hrs by MTS assay; format: cell-based; settings: Huh-7, 24 h
[3] = Cytotoxicity against human HuH7 cells assessed as cell viability at 20 uM after 24 hrs by MTS assay; format: cell-based, Huh-7; settings: read-out: Activity
Nakaseomyces glabratus = assay: Antifungal activity against Candida glabrata 20/I after 24 to 48 hrs by broth microdilution method; format: functional
Mycobacterium kansasii [4] = assay: Antimycobacterial activity against Mycobacterium kansasii CNCTC My 6509/96 after 14 days by microdilution method; format: functional; settings: CNCTC My 6509/96, 336 h
Mycobacterium kansasii [5] = assay: Antimycobacterial activity against Mycobacterium kansasii CNCTC My 235/80 after 14 days by microdilution method; format: functional; settings: CNCTC My 235/80, 336 h
HeLa [6] = assay: Cytotoxicity against human HeLa cells assessed as cell viability after 24 hrs by MTS assay; format: cell-based
[7] = Cytotoxicity against human HeLa cells assessed as cell viability at 20 uM after 48 hrs by MTS assay; format: cell-based; settings: read-out: Activity
[8] = Selectivity index, ratio of IC50 for human HepG2 cells to MIC>99 for Mycobacterium tuberculosis CNCTC My 331/88; format: toxicity, cell-based; settings: read-out: Selectivity Index
Candida tropicalis = assay: Antifungal activity against Candida tropicalis 156 after 24 to 48 hrs by broth microdilution method; format: functional
Mycobacterium avium [9] = assay: Antimycobacterial activity against Mycobacterium avium CNCTC My 330/88 after 14 days by microdilution method; format: functional; settings: CNCTC My 330/88, 336 h
[10] = Cytotoxicity against MDCK2-MDR1 cells assessed as cell viability at 20 uM after 48 hrs by MTS assay; format: ADME, cell-based, Canis lupus familiaris, MDCK-II; settings: dog, read-out: Activity
Mycobacterium kansasii [11] = assay: Antimycobacterial activity against Mycobacterium kansasii CNCTC My 235/80 after 7 days by microdilution method; format: functional; settings: CNCTC My 235/80, 168 h
[12] = Aqueous solubility of compound in distilled water at 0.2 mg/ml after 24 hrs by HPLC analysis; format: physicochemical
[13] = Cytotoxicity against human HepG2 cells assessed as cell viability at 50 uM after 48 hrs by MTS assay; format: cell-based; settings: read-out: Activity
[14] = system: Mycobacterium tuberculosis; assay: Antimycobacterial activity against non-replicating streptomycin-starved Mycobacterium tuberculosis SS18b-Lux measured at 5 mins to 6 days by luciferase assay; format: functional, organism-based
[15] = Cytotoxicity against MDCK2-MDR1 cells assessed as cell viability after 24 hrs by MTS assay; format: ADME, cell-based; settings: Canis lupus familiaris, MDCK-II
HeLa [16] = assay: Cytotoxicity against human HeLa cells assessed as cell viability after 48 hrs by MTS assay; format: cell-based
Candida albicans = assay: Antifungal activity against Candida albicans ATCC 44859 after 24 to 48 hrs by broth microdilution method; format: functional
Escherichia coli = assay: Antibacterial activity against Escherichia coli ATCC 8739 after 24 to 48 hrs by broth microdilution method; format: functional
Mycobacterium kansasii [17] = assay: Antimycobacterial activity against Mycobacterium kansasii CNCTC My 235/80 after 21 days by microdilution method; format: functional; settings: CNCTC My 235/80, 504 h
[18] = system: Staphylococcus epidermidis; assay: Antibacterial activity against Staphylococcus epidermidis H 6966/08 after 24 to 48 hrs by broth microdilution method; format: functional
[19] = system: Mycobacterium tuberculosis H37Ra; assay: Inhibition of DprE1 in Mycobacterium tuberculosis H37Ra assessed as accumulation of trehalose dimycolate at 0.2 ug/ml preincubated for 24 hrs followed by radiolabeling with [14C]-acetate for 24 hrs by TLC/autoradiographic method
Enterococcus faecalis = assay: Antibacterial activity against Enterococcus faecalis J 14365/08 after 24 to 48 hrs by broth microdilution method; format: functional
Klebsiella pneumoniae [20] = assay: Antibacterial activity against ESBL producing Klebsiella pneumoniae J 14368/08 after 24 to 48 hrs by broth microdilution method; format: functional
Mycobacterium kansasii [21] = assay: Antimycobacterial activity against Mycobacterium kansasii CNCTC My 6509/96 after 21 days by microdilution method; format: functional; settings: CNCTC My 6509/96, 504 h
[22] = biological target: Decaprenylphosphoryl-beta-D-ribose oxidase (Mycobacterium smegmatis (strain ATCC 700084 / mc(2)155)) (UniProt A0R607); assay: Inhibition of DprE1 in mixture of Mycobacterium smegmatis MC2 155 membrane and cell envelope fractions assessed as incorporation of P[14C]RPP into [14C]-decaprenylphosphoryl arabinose up to 0.6 mM incubated for 1 hr by TLC/autoradiographic method; settings: Mycolicibacterium smegmatis MC2 155
Sequence of Decaprenylphosphoryl-beta-D-ribose oxidase (Mycobacterium smegmatis (strain ATCC 700084 / mc(2)155)) (A0R607 whole entry): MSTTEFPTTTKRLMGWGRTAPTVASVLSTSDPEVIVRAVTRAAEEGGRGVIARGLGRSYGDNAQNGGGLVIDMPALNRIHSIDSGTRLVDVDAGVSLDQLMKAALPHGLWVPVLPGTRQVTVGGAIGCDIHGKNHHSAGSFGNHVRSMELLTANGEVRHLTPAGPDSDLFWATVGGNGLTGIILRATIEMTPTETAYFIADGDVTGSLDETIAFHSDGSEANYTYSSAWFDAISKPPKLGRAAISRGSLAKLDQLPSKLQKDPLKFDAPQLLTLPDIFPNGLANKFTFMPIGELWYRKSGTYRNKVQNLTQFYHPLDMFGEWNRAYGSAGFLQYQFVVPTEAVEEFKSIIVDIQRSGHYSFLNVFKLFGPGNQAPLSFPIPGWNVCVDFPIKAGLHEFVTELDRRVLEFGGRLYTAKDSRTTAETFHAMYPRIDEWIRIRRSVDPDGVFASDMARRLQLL

[23] = system: Mycobacterium tuberculosis; assay: Antimycobacterial activity against non-replicating streptomycin-starved Mycobacterium tuberculosis SS18b-Lux by resazurin reduction microplate assay; format: functional, organism-based
[24] = Cytotoxicity against MDCK2-MDR1 cells assessed as cell viability at 20 uM after 24 hrs by MTS assay; format: ADME, cell-based, Canis lupus familiaris, MDCK-II; settings: dog, read-out: Activity
Klebsiella pneumoniae [25] = assay: Antibacterial activity against Klebsiella pneumoniae D 11750/08 after 24 to 48 hrs by broth microdilution method; format: functional
Pichia kudriavzevii = assay: Antifungal activity against Candida krusei E28 after 24 to 48 hrs by broth microdilution method; format: functional
[26] = system: Mycobacterium tuberculosis; assay: Antimycobacterial activity against Mycobacterium tuberculosis H37Ra assessed as growth inhibition at 0.5 ug/ml preincubated for 24 hrs followed by radiolabeling with [14C]-acetate for 24 hrs; format: functional; settings: read-out: GI
[27] = Cytotoxicity against primary human hepatocytes assessed as cell viability at 20 uM after 48 hrs by MTS assay; format: cell-based, Hepatocyte; settings: read-out: Activity
Trichosporon asahii = assay: Antifungal activity against Trichosporon asahii 1188 after 24 to 48 hrs by broth microdilution method; format: functional
Salmonella typhimurium [28] = assay: Mutagenic activity in Salmonella typhimurium TA100 assessed as reverse mutation at 30 uM by Ames test; format: toxicity, organism-based; settings: salmonella enterica subsp. enterica serovar typhimurium
Salmonella typhimurium [29] = assay: Mutagenic activity in Salmonella typhimurium TA98 assessed as reverse mutation at 30 uM by Ames test; format: toxicity, organism-based; settings: salmonella enterica subsp. enterica serovar typhimurium
HepG2 = assay: Cytotoxicity against human HepG2 cells assessed as cell viability after 48 hrs by MTS assay; format: cell-based; settings: HepG2, 48 h
[30] = Chemical stability of compound in DMSO at 100 uM after 1 month by HPLC analysis; format: physicochemical; settings: 730.5 h
Staphylococcus aureus = assay: Antibacterial activity against methicillin-resistant Staphylococcus aureus H 5996/08 after 24 to 48 hrs by broth microdilution method; format: functional
[31] = system: Mycobacterium tuberculosis; assay: Antimycobacterial activity against Mycobacterium tuberculosis CNCTC My 331/88 after 21 days by microdilution method; format: functional; settings: CNCTC My 331/88, 504 h
Mycobacterium avium [32] = assay: Antimycobacterial activity against Mycobacterium avium CNCTC My 330/88 after 21 days by microdilution method; format: functional; settings: CNCTC My 330/88, 504 h
[33] = Cytotoxicity against human HuH7 cells assessed as cell viability at 20 uM after 48 hrs by MTS assay; format: cell-based, Huh-7; settings: read-out: Activity

`O=[N+]([O-])c1cc(CSc2nnc(-c3ccc(Cl)cc3)s2)cc([N+](=O)[O-])c1` showed an IC50 (Hepatocyte) of over 20 µM, an MIC99 (Mycobacterium kansasii [1]) of 0.125 µM (≈ 0.0511 µg/mL) and an IC50 [2] of over 20 µM. For the same molecule, the viability at 24 h, 20 µM [3] was 94%, the MIC80 (Nakaseomyces glabratus) was over 125 µM and the MIC99 (Mycobacterium kansasii [4]) was 0.25 µM (≈ 0.102 µg/mL). It also gave an MIC99 (Mycobacterium kansasii [5]) of 0.5 µM (≈ 0.204 µg/mL), an IC50 (HeLa [6]) of over 20 µM and a viability at 48 h, 20 µM [7] of 108%. It also gave a selectivity ratio [8] of over 500, an MIC80 (Candida tropicalis) of over 125 µM and an MIC99 (Mycobacterium avium [9]) of 8 µM (≈ 3.27 µg/mL). It also gave a viability at 48 h, 20 µM [10] of 91.4%, an MIC99 (Mycobacterium kansasii [11]) of 0.125 µM (≈ 0.0511 µg/mL) and a solubility at 24 h [12] of 0.03 µM (≈ 0.0123 µg/mL). For the same molecule, the viability at 48 h, 50 µM [13] was 98.5%, the Activity [14] was “Dose-dependent effect” and the IC50 [15] was over 20 µM. It also gave an IC50 (HeLa [16]) of over 20 µM, an MIC80 (Candida albicans) of over 125 µM and an MIC95 (Escherichia coli) of over 125 µM. The MIC99 (Mycobacterium kansasii [17]) was 0.5 µM (≈ 0.204 µg/mL), the MIC95 [18] was over 125 µM and the inhibition [19] was “inactive”. It also gave an MIC95 (Enterococcus faecalis) of over 125 µM, an MIC95 (Klebsiella pneumoniae [20]) of over 125 µM and an MIC99 (Mycobacterium kansasii [21]) of 0.5 µM (≈ 0.204 µg/mL). The inhibition [22] was “inactive”, the Activity [23] was “Dose-dependent effect” and the viability at 24 h, 20 µM [24] was 102%. The MIC95 (Klebsiella pneumoniae [25]) was over 125 µM, the MIC80 (Pichia kudriavzevii) was over 125 µM and the inhibition of growth at 0.5 µg/mL [26] was 12%. The viability at 48 h, 20 µM [27] was 102%, the MIC80 (Trichosporon asahii) was over 125 µM and the Activity (Salmonella typhimurium [28]) was “Non-toxic”. The Activity (Salmonella typhimurium [29]) was “Non-toxic”, the IC50 (HepG2) was over 50 µM and the Stability [30] was “Stable”. For the same molecule, the MIC95 (Staphylococcus aureus) was over 125 µM, the MIC99 [31] was 0.06 µM (≈ 0.0245 µg/mL) and the MIC99 (Mycobacterium avium [32]) was 16 µM (≈ 6.54 µg/mL). For the same molecule, the viability at 48 h, 20 µM [33] was 43.4%.

In the case of `Cc1ccc(-c2nnc(SCc3cc([N+](=O)[O-])cc([N+](=O)[O-])c3)o2)cc1`, the IC50 (Hepatocyte) is reported as over 20 µM, the MIC99 (Mycobacterium kansasii [1]) is reported as 0.06 µM (≈ 0.0223 µg/mL) and the IC50 [2] is reported as over 20 µM. For the same molecule, the viability at 24 h, 20 µM [3] was 101%, the MIC80 (Nakaseomyces glabratus) was over 125 µM and the MIC99 (Mycobacterium kansasii [4]) was 0.06 µM (≈ 0.0223 µg/mL). For the same molecule, the MIC99 (Mycobacterium kansasii [5]) was 0.06 µM (≈ 0.0223 µg/mL), the IC50 (HeLa [6]) was over 20 µM and the viability at 48 h, 20 µM [7] was 118%. The selectivity ratio [8] was over 500, the MIC80 (Candida tropicalis) was over 125 µM and the MIC99 (Mycobacterium avium [9]) was 8 µM (≈ 2.98 µg/mL). It also gave a viability at 48 h, 20 µM [10] of 48.5%, an MIC99 (Mycobacterium kansasii [11]) of 0.06 µM (≈ 0.0223 µg/mL) and a solubility at 24 h [12] of 0.067 µM (≈ 0.0249 µg/mL). The viability at 48 h, 50 µM [13] was 95.5%, the Activity [14] was “Dose-dependent effect” and the IC50 [15] was over 20 µM. For the same molecule, the IC50 (HeLa [16]) was over 20 µM, the MIC80 (Candida albicans) was over 125 µM and the MIC95 (Escherichia coli) was over 125 µM. For the same molecule, the MIC99 (Mycobacterium kansasii [17]) was 0.06 µM (≈ 0.0223 µg/mL), the MIC95 [18] was over 125 µM and the inhibition [19] was “inactive”. It also gave an MIC95 (Enterococcus faecalis) of over 125 µM, an MIC95 (Klebsiella pneumoniae [20]) of over 125 µM and an MIC99 (Mycobacterium kansasii [21]) of 0.125 µM (≈ 0.0465 µg/mL). The inhibition [22] was “inactive”, the Activity [23] was “Dose-dependent effect” and the viability at 24 h, 20 µM [24] was 98%. For the same molecule, the MIC95 (Klebsiella pneumoniae [25]) was over 125 µM, the MIC80 (Pichia kudriavzevii) was over 125 µM and the inhibition of growth at 0.5 µg/mL [26] was 36%. The viability at 48 h, 20 µM [27] was 95.1%, the MIC80 (Trichosporon asahii) was over 125 µM and the Activity (Salmonella typhimurium [28]) was “Non-toxic”. The Activity (Salmonella typhimurium [29]) was “Non-toxic”, the IC50 (HepG2) was over 50 µM and the Stability [30] was “Stable”. It also gave an MIC95 (Staphylococcus aureus) of over 125 µM, an MIC99 [31] of at most 0.03 µM and an MIC99 (Mycobacterium avium [32]) of 16 µM (≈ 5.96 µg/mL). It also gave a viability at 48 h, 20 µM [33] of 53.1%.
